Source: patent publication US11046954B2, “Targeted protein degradation to attenuate adoptive T-cell therapy associated adverse inflammatory responses” (Dana-Farber Cancer Institute, Inc., priority 2015, dated 2021)
“Also recorded” adds a separate entry of the source.

Legend:
[1] = tested on: FKBP*-KRASG12V; assay: Immunoblot of NIH3T3 cells expressing FKBP* fused to KRASG12V: degradation; type: cell-based
Method: FIG. 19 is an immunoblot of NIH3T3 cells expressing KRASG12V allele fused to FKBP* in the N-terminus or C-terminus. Cells were treated with 500 nM dFKBP7 for the indicated time. Cells were harvested and immunoblotted to measure degradation of FKBP*-KRASG12V and downstream surrogates of KRAS signaling (e.g. pMEK and pAKT).
(§1) FIG. 20 is an immunoblot of NIH3T3 cells expressing FKBP* fused to the N-terminus of KRASG12V treated with luM of the indicated dFKBP heterobifunctional compounds for 24 hours. Cells were harvested and immunoblotted to measure degradation of FKBP*-KRASG12V and downstream surrogates of KRAS signaling (e.g. pMEK and pAKT).
as §1, with “21” for “20”, “with” for “with luM of”, “concentrations of dFKBP13” for “dFKBP heterobifunctional compounds”
FIG. 22 is an immunoblot of NIH3T3 cells expressing FKBP* fused to the N-terminus of KRASG12V treated with luM dFKBP13 for the indicated time. Cells were harvested and immunoblotted to measure degradation of FKBP*-KRASG12V and downstream surrogates of KRAS signaling (e.g. pMEK and pAKT).
Cells were treated with 500 nM dFKBP7 for the indicated time. Cells were harvested and immunoblotted to measure degradation of FKBP*-KRAS and downstream surrogates of KRAS signaling (e.g. pMEK and pAKT).
Western blotting of NIH3T3 cells expressing dTAG-KRASG12V were treated with 1 μM of the indicated dFKBP heterobifunctional compounds for 24 hours. Cells were harvested and immunoblotted to measure degradation of FKBP*-KRAS and downstream surrogates of KRAS signaling (e.g. pMEK and pAKT).
Western blotting of NIH3T3 cells expressing FKBP* fused to the N-terminus of KRAS treated with the indicated concentrations of dFKBP13 for 24 hours. Cells were harvested and immunoblotted to measure degradation of FKBP*-KRAS and downstream surrogates of KRAS signaling (e.g. pMEK and pAKT).
To evaluate the kinetic control of targeted degradation of dTAG-KRAS, dFKBP13 was administered by increased duration. Western blotting of NIH3T3 cells expressing FKBP* fused to the N-terminus of KRAS treated with 1 μM dFKBP13 for the indicated time. Cells were harvested and immunoblotted to measure degradation of FKBP*-KRAS and downstream surrogates of KRAS signaling (e.g. pMEK and pAKT).

[2] = target: T1, FKBP* (Homo sapiens, UniProt P62942, F37V); assay: Immunoblot of 293FT cells (CRBN-WT or CRBN−/−) expressing HA-tagged FKBP*; type: cell-based; conditions: for degradation of FKBP*: 100 nM
T1 construct: HA; expressed in transfected cells; host or cells: 293FT cells (CRBN-WT or CRBN-/-)
Method: FIG. 6 is an immunoblot of cells treated with bi-functional molecules described in the present invention. 293FT cells (CRBN-WT or CRBN−/−) expressing either HA-tagged FKBP12WT or FKBP* (also referred to as dFKBP12* herein) were treated with indicated concentrations of dFKBP7 for 4 hours.
Isogenic 293FT cells (CRBN-WT or CRBN−/−) expressing either FKBP12WT or FKBP* were treated with 100 nM of either dFKBP7 or dFKBP13 for 4 hours.
Isogenic 293FT cells (CRBN-WT or CRBN−/−) expressing HA-tagged FKBP* were treated with the indicated dose of dFKBP13 for 4 hours.
293FT cells (CRBN-WT) expressing HA-tagged FKBP* were treated with 100 nM dFKBP13 for the indicated times. Cells were harvested and protein lysates immunoblotted to measure the kinetics of HA-tagged FKBP* degradation induced by dFKBP13.
The dTAG is predicated on the selectivity of FKBP* specific ligands over endogenous, wild type FKBP. In 293 T cells expressing wild type FKBP 12 or FKBP*, dFKBP7 induces targeted degradation only in FKBP* expressing cells. An immunoblot of cells treated with bi-functional molecules described in the present invention was performed. 293FT cells (CRBN-WT or CRBN−/−) expressing either HA-tagged FKBP12WT or FKBP* were treated with indicated concentrations of dFKBP7 for 4 hours.
In 293T cells expressing wild type FKBP12 or FKBP*, treatment with dFKBP7 and dFKBP13 induces targeted degradation only in FKBP* expressing cells. Isogenic 293FT cells (CRBN-WT or CRBN−/−) were engineered to express either FKBP12WT or FKBP*. Cells were treated with 100 nM of either dFKBP7 or dFKBP13 for 4 hours before lysates were prepared for western immunoblot analysis.
In an effort to define the optimal concentration of dFKB13 heterobifunctional compounds to induce degradation of FKBP*, degradation was measured upon treatment with increasing concentrations of dFKBP13. Isogenic 293FT cells (CRBN-WT or CRBN−/−) were engineered to expressed HA-tagged FKBP*. Cells were treated with the indicated dose of dFKBP13 for 4 hours before lysates were prepared for western immunoblot analysis.
To evaluate the kinetic control of targeted degradation FKBP*, dFKBP13 was administered by increased duration. 293FT cells (CRBN-WT) were engineered to express HA-tagged FKBP*. Cells were treated with 100 nM dFKBP13 for the indicated times. Cells were harvested and protein lysates immunoblotted to measure the kinetics of HA-tagged FKBP* degradation induced by dFKBP 13.

[3] = isogenic 293FT CRBN-WT or CRBN−/−, 4 hours

T1 sequence (P62942 whole entry F37V): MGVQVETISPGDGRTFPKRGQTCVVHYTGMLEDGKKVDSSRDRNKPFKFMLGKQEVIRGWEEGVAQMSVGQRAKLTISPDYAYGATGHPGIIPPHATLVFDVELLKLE

SMILES | degradation of FKBP*-KRASG12V ([1]; 500 nM dFKBP7, indicated time, N-terminal fusion) | degradation of HA-tagged FKBP* ([2]; 293FT CRBN-WT or CRBN−/−, indicated concentrations of dFKBP7, 4 hours) | degradation of FKBP* [2, 3] | time at which degradation of FKBP*-KRASG12V and inhibition of downstream signaling are seen ([1]; 1 μM dFKBP13, indicated time) | degradation of FKBP*-KRASG12V ([1]; 1 μM, 24 hours) | degradation of FKBP*-KRASG12V ([1]; indicated concentrations of dFKBP13, 24 hours) | degradation of HA-tagged FKBP*, dose dependence ([2]; isogenic 293FT CRBN-WT or CRBN−/−, indicated dose, 4 hours)
CC[C@H](C(=O)N1CCCC[C@H]1C(=O)O[C@H](CCc1ccc(OC)c(OC)c1)c1cccc(OCC(=O)NCCCOCCOCCOCCCNC(=O)COc2cccc3c2C(=O)N(C2CCC(=O)NC2=O)C3=O)c1)c1cc(OC)c(OC)c(OC)c1 (some centres unmarked) [dFKBP7] | potent degradation; also recorded: N-terminal FKBP* fusions are active and degraded | CRBN-dependent degradation of FKBP* | CRBN-dependent degradation of FKBP* |  |  |  | 
CC[C@H](C(=O)N1CCCC[C@H]1C(=O)O[C@H](CCc1ccc(OC)c(OC)c1)c1cccc(OCC(=O)NCCCCCCOc2cccc3c2C(=O)N(C2CCC(=O)NC2=O)C3=O)c1)c1cc(OC)c(OC)c(OC)c1 (some centres unmarked) [dFKBP13] |  |  | CRBN-dependent degradation of FKBP* | ≤ 1 h | potent degradation | potently degrades dTAG-KRAS at nanomolar concentrations; also recorded: potent degradation | dose- and CRBN-dependent degradation
